Measured values reported in ChEMBL document CHEMBL1139656, “Aminoalkyl phenyl sulfones--a novel series of 5-HT7 receptor ligands” (Bioorg Med Chem Lett, 2006).

What was measured:
[1] = molecular target: T1, 5-hydroxytryptamine receptor 7 (Homo sapiens, UniProt P34969); experiment: Displacement of [3H]5-HT from the cloned human 5-HT7 receptor expressed in CHO cells; assay type: cell-based
[2] = molecular target: T2, 5-hydroxytryptamine receptor 1A (Homo sapiens, UniProt P08908); experiment: Displacement of [3H]5-HT from the cloned human 5-HT1A receptor expressed in HeLa cells; assay type: cell-based
T2 sequence (P08908 whole entry): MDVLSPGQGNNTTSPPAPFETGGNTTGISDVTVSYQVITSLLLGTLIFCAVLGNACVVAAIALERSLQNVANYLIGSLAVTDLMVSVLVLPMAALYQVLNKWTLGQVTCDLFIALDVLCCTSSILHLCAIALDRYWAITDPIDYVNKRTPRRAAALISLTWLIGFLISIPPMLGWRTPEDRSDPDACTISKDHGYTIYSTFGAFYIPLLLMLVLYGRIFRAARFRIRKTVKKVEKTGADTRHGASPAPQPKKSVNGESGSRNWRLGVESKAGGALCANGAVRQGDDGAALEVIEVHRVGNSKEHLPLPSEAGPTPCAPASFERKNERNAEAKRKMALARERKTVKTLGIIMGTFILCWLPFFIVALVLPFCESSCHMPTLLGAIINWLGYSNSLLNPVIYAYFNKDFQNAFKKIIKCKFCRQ

[3] = molecular target: 5-hydroxytryptamine receptor 2A (Homo sapiens, UniProt P28223); experiment: Displacement of [3H]ketanserin from the cloned human 5-HT2A receptor expressed in CHO cells; assay type: cell-based
5-hydroxytryptamine receptor 2A, sequence (P28223 whole entry): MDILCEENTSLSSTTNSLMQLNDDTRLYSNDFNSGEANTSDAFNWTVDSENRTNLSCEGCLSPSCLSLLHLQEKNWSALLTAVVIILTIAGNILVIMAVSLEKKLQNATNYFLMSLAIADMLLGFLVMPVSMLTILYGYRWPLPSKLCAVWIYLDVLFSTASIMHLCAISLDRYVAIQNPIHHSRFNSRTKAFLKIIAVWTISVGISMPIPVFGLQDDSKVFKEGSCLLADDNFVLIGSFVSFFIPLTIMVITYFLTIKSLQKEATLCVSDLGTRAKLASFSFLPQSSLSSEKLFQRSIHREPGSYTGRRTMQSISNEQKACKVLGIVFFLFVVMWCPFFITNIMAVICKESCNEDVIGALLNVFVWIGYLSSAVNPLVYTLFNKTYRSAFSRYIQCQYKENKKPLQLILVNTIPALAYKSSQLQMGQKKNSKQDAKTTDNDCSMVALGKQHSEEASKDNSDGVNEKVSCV

[4] = molecular target: T1, 5-hydroxytryptamine receptor 7; experiment: Activity towards human 5-HT7 receptor at 10 uM relative to 5-CT; assay type: functional
[5] = molecular target: Voltage-gated inwardly rectifying potassium channel KCNH2 (Homo sapiens, UniProt Q12809); experiment: Displacement of [35S]-labeled MK-499 from cloned human ERG receptor expressed in HEK cells; assay type: cell-based, HEK293
Voltage-gated inwardly rectifying potassium channel KCNH2, sequence (Q12809 whole entry): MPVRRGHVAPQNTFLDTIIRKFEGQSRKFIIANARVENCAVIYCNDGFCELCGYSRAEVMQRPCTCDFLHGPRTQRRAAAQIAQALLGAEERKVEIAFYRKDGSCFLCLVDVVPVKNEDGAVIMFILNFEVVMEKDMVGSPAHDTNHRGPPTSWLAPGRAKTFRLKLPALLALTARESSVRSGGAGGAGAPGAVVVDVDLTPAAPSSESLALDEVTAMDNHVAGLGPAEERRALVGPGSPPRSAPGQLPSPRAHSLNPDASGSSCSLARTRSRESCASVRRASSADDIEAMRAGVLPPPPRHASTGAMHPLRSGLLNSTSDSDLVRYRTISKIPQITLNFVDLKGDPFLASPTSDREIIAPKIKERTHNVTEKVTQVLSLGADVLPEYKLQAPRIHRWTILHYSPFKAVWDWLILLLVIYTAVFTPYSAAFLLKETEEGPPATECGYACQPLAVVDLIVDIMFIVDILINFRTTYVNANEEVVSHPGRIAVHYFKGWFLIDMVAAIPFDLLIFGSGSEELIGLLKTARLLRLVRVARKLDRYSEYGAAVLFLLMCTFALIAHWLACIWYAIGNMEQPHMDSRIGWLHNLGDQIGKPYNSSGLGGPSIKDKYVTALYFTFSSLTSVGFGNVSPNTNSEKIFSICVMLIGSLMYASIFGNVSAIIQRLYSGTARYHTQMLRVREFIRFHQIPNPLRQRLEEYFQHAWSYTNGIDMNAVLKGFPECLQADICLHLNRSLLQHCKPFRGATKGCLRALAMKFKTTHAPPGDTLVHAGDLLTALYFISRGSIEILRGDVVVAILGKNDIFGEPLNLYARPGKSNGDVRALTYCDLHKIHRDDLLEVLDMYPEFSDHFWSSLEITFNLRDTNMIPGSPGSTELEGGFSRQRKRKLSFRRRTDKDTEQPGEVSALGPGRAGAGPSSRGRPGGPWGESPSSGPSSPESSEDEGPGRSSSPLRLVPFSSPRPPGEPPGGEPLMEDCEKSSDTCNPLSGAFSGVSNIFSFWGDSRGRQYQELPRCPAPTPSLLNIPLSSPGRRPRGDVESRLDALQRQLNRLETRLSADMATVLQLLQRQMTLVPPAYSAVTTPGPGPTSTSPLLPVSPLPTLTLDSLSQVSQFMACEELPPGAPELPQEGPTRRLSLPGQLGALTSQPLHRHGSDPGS

[6] = molecular target: 5-hydroxytryptamine receptor 1B (Homo sapiens, UniProt P28222); experiment: Displacement of [3H]5-HT from the cloned human 5-HT1B receptor expressed in CHO cells; assay type: cell-based
5-hydroxytryptamine receptor 1B, sequence (P28222 whole entry): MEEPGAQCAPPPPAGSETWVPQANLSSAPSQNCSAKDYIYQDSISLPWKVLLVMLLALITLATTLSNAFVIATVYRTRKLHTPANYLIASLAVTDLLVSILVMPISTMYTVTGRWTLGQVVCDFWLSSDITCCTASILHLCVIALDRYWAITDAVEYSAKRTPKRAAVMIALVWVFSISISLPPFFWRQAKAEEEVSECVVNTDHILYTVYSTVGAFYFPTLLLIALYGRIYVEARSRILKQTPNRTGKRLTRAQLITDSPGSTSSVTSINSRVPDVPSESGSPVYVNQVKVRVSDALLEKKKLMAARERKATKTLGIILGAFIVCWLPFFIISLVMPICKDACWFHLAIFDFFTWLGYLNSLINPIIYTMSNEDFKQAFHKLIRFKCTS

[7] = molecular target: T3, Adrenergic receptor alpha-1 (Rattus norvegicus, UniProt P15823+P23944+P43140); experiment: Displacement of [3H]prazosin from alpha-1 adrenergic receptor in rat cortex
T3 sequence (P15823 whole entry): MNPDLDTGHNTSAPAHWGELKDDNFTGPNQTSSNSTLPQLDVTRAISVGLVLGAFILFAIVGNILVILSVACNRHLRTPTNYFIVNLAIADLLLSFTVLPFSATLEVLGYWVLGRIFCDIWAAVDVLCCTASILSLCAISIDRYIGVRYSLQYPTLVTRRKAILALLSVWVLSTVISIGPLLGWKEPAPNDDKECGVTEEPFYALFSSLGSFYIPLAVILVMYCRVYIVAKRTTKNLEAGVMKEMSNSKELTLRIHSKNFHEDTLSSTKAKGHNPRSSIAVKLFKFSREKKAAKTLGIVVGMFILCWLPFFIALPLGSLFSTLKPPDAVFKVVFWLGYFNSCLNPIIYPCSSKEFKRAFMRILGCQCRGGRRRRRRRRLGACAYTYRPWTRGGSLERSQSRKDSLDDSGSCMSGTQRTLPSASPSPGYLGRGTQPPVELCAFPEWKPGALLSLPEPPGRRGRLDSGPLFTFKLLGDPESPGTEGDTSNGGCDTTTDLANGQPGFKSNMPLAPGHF
T3 sequence (P23944 whole entry): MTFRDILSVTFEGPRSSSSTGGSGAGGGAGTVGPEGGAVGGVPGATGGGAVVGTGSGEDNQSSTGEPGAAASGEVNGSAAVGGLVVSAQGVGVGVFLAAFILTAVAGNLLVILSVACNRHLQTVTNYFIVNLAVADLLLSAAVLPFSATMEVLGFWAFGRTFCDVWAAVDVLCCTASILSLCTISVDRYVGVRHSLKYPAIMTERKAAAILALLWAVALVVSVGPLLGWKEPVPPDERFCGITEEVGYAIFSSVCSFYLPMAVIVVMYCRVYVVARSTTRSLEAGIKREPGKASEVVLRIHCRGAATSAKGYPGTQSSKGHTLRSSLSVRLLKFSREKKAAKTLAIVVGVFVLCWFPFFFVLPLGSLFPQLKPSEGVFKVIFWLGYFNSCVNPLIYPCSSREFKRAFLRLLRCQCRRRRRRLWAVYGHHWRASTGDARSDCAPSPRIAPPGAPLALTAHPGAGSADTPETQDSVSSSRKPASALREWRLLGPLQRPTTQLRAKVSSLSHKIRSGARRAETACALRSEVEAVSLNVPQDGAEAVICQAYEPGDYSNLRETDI
T3 sequence (P43140 whole entry): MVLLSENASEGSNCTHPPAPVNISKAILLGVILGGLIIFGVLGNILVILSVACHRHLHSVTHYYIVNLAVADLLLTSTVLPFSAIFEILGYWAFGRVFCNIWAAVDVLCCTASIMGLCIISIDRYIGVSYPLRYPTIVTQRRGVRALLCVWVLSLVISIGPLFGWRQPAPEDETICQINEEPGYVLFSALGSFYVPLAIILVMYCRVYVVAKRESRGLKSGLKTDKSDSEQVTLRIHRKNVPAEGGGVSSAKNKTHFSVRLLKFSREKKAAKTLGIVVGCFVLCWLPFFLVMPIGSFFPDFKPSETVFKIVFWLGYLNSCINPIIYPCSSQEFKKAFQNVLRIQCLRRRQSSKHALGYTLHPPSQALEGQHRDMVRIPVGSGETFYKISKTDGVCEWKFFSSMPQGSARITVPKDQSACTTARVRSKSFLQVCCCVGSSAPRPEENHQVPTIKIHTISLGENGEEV

D(2) dopamine receptor = D(2) dopamine receptor (Homo sapiens, UniProt P14416); experiment: Displacement of [3H]spiperone from the cloned human D2 receptor expressed in CHO cells; assay type: cell-based
D(2) dopamine receptor, sequence (P14416 whole entry): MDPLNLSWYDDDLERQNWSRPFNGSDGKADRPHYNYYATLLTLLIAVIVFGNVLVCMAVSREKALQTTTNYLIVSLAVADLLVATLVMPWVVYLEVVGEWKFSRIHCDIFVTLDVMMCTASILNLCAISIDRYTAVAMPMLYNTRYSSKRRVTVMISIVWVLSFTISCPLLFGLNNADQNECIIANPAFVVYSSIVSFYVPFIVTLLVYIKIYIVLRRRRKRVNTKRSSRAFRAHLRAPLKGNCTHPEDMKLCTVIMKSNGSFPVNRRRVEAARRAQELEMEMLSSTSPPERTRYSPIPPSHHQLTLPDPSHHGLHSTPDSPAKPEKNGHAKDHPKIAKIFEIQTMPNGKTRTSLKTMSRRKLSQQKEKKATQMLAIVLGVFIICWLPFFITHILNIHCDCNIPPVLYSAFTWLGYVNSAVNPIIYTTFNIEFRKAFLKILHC

T1 sequence (P34969 whole entry): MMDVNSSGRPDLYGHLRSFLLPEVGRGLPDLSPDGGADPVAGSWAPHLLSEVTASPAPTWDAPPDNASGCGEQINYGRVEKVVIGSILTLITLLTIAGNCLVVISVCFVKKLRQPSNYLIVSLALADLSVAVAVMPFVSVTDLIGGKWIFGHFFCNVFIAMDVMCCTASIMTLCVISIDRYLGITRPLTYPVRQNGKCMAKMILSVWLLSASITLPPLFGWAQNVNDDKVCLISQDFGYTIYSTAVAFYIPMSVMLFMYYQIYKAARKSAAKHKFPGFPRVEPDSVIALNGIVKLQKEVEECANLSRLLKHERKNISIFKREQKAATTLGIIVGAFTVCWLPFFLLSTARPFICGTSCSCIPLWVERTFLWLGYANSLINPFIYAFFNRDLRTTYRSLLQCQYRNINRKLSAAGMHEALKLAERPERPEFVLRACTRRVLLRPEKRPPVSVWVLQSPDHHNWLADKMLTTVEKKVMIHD

SMILES	Ki [1] [nM]	Ki [2] [nM]	Ki [3] [nM]	Activity [4] [%]	Ki [5] [nM]	Ki [6] [nM]	Ki [7] [nM⁻¹]	Ki (D(2) dopamine receptor) [nM]
CN1CCN(CCCC2(S(=O)(=O)c3ccccc3)CCC2)CC1	5800							
O=S(=O)(c1ccccc1)C1(CCCN2CCc3ccccc3C2)CCC1	8	35	65	5				
O=S(=O)(c1ccccc1)C1(CCCN2CCC3CCCCC3C2)CCC1 (racemic)	6	210	570	39				
CC(C)(CCCN1CCCC(c2ccccc2)C1)S(=O)(=O)c1ccccc1 (racemic)	7	400	1800	0	> 5000	7700	540	220
O=S(=O)(c1ccccc1)C1(CCCN2CCC(c3ccccc3)C2)CCC1 (racemic)	9							
O=S(=O)(c1ccccc1)C1(CCCN2CCOCC2)CCC1	> 7000							
CCOC(=O)[C@@H]1CCCN(CCCC(C)(C)S(=O)(=O)c2ccccc2)C1	24	2400	1870	0		> 7000	> 4000	710
CCOC(=O)[C@H]1CCCN(CCCC(C)(C)S(=O)(=O)c2ccccc2)C1	455							
O=S(=O)(c1ccccc1)C1(CCCN2CCN(c3ccccc3)CC2)CCC1	22							
CC(C)(CCCN1CC[C@@H]2CCCC[C@H]2C1)S(=O)(=O)c1ccccc1 (racemic)	8	1500	2000	83	> 4000	> 7000	3900	900
O=S(=O)(c1ccccc1)C1(CCCN2CCCCC2)CCC1	2700							
O=S(=O)(CCCCN1CCC2CCCCC2C1)c1ccccc1 (racemic)	96							
O=S(=O)(c1ccccc1)C1(CCCN2CCC(c3ccccc3)CC2)CCC1	26							
O=S(=O)(c1ccccc1)C1(CCN2CCC(c3ccccc3)C2)CCC1 (racemic)	53							
CC1CCN(CCCC2(S(=O)(=O)c3ccccc3)CCC2)CC1	550							
CC(C)(CCCN1CCCC(c2cnco2)C1)S(=O)(=O)c1ccccc1 (racemic)	15	> 7000	> 1000	12	> 8000	> 5000	> 4000	1500
CN(C)CCCC1(S(=O)(=O)c2ccccc2)CCC1	> 7000							
O=S(=O)(c1ccccc1)C1(CCCCN2CCC(c3ccccc3)C2)CCC1 (racemic)	13							
CC(C)(CCCN1CCCC(C(F)(F)F)C1)S(=O)(=O)c1ccccc1 (racemic)	54	> 7000	> 2000	0	> 5000	> 7000	> 4000	> 1000
